# Tested on: Plasmodium falciparum
# Assay: GSK_TCMDC: Inhibition of Plasmodium falciparum 3D7 in whole erythrocytes, using parasite LDH activity as an index of growth.
# Type: functional, organism-based
# Conditions: Plasmodium falciparum, 3D7
row,SMILES,XC50 [nM]
1,COc1ccc2nc(C)cc(N/N=C/c3cccc([N+](=O)[O-])c3)c2c1,725
2,CCN(CC)CCN(Cc1ccc(-c2ccc(C(F)(F)F)cc2)cc1)C(=O)Cn1c(CCc2c(F)cc(F)cc2F)nc(=O)c2ccccc21,1040
3,c1ccc2c(NCCCCCCNc3c4ccccc4nc4ccccc34)c3ccccc3nc2c1,753
4,O=C(/C=C/c1ccc(Cl)c(Cl)c1)NCCCCCN1CCC(C(=O)Nc2ccc(Cl)c(Cl)c2)CC1,637
5,Cc1ccc(CC(C)NCC(O)c2cccc([N+](=O)[O-])c2)cc1 (centres undefined),761
6,COc1cc2c(=O)c(Cc3ccc(Cl)cc3)c(C)[nH]c2cc1F,1160
7,COc1ccc2nccc([C@@H](O)CN3CCC(NCCOc4cccc(C(F)(F)F)c4Cl)CC3)c2c1,154
8,CC(O)C1CCCCN1C(=O)c1cccc(-c2cccc(-c3nc4cc(F)ccc4[nH]3)c2)c1 (centres undefined),536
9,CC(Cc1ccc(CNC(=O)NCc2ccc(CC(C)NCCc3cccc(Cl)c3)cc2)cc1)NCCc1cccc(Cl)c1 (centres undefined),685
10,Cc1ccc(C(=O)Nc2ccc(C)c(OC3CCN(Cc4ccco4)C3)c2)cc1 (centres undefined),966
11,FC(F)(F)c1ccc2[nH]c(-c3ccc(-c4cccc(CNCc5ccccc5)c4)cc3)nc2c1,222
12,CCCCCC(C)C(C)c1cc(O)c2c(c1)OC(C)(C)CC2=Cc1ccncc1 (centres undefined),213
13,CCOc1ccc(-c2nonc2NC(=O)c2ccc(OC)cc2)cc1OCC,822
14,CN(C)CC(=O)Nc1cccc(Nc2nccc(NCC(O)c3ccccc3)n2)c1 (centres undefined),983
15,CCN(CC)CCNC(=O)c1ccc(Nc2ncc([N+](=O)[O-])c(Nc3ccccc3OC)n2)cc1,144
16,NC(=O)COc1cccc2c1CCN(CCN1CCC(NC(=O)c3ccc(-c4ccc(Cl)cc4)cc3)CC1)C2,841
17,Fc1cccc(COc2ccc(Nc3ncnc4sc(C#CCNC5CCCC5)cc34)cc2Cl)c1,782
18,CCCCNc1nc(NCCCC)c2c(C)c(Cc3ccccc3)c(NCCCC)nc2n1,889
19,O=C(Nc1ccc(Cl)cc1)c1cc(Cl)cc2nc(C(F)(F)F)[nH]c12,131
20,CN(C)c1ccc(N2C(N)=NC(N)=NC23CCCC3)cc1,935
21,O=C(O)/C=C/c1cccc(F)c1F,96.1
22,O=C(Nc1ccc(C(=O)Nc2ccc(C3=NCCN3)cc2)cc1)Nc1ccc(C2=NCCN2)cc1,180
23,CC(Sc1nnc(-c2cccs2)[nH]1)C(=O)c1c[nH]c2ccccc12 (centres undefined),1800
24,Fc1ccc2[nH]c(-c3ccccc3)nc2c1CN1CCC(N2CCCC2)CC1,717
25,O=C1OC2(CN1CC1CCN(Cc3ccc(-n4ccnc4)cc3)C1)c1ccccc1-c1ccccc12 (centres undefined),983

row,SMILES,XC50 [nM]
1,COc1ccc(CNC(=O)C2Cc3ccccc3CN2Cc2ccc3ccccc3c2)cc1 (centres undefined),1100
2,Oc1ccc(Cl)cc1CN1CCC(CCOC(c2ccccc2)c2ccccc2)CC1,649
3,O=C(Nc1ccc(OC(F)(F)F)cc1)Nc1ccc([N+](=O)[O-])cc1,878
4,CC(CCON1C(N)=NC(N)=NC1(C)C)c1ccc(Cl)cc1 (centres undefined),3.2
5,CN(C)CCCOc1cccc(NC(=O)Nc2ccc(-c3ccccc3)cc2)c1,868
6,CC(Cc1ccc(NC(=O)c2ccc(CC(C)NCc3ccc(Cl)cc3)cc2)cc1)NCCc1cccc(Cl)c1 (centres undefined),450
7,CC1(C)NC(N)=NC(=N)N1OCCNCc1ccc(Cl)cc1,160
8,CCCc1cc(Cc2cnc(N)nc2N)cc(CCC)c1OCCCCC(=O)OC,41.9
9,CCCCCN1CCCC1CNS(=O)(=O)c1ccc(C(=O)Nc2ccc(C(F)(F)F)cc2)cc1 (centres undefined),838
10,O=C(C=Cc1ccc(Cl)c(Cl)c1)NCCCCCN1CCC(c2n[nH]c3ccccc23)CC1,638
11,CN1CCN(CCNc2c3ccccc3nc3ccc4ccccc4c23)CC1,534
12,COc1ccc2nccc(NC(=O)C3CCC(NCc4cnc(SC)c([N+](=O)[O-])c4)CC3)c2n1 (centres undefined),927
13,Oc1ccc(Cl)cc1Nc1nc(C(F)(F)F)nc2ccccc12,938
14,CCOc1cc(C(=O)NCCCN2CCN(c3cccc(Cl)c3)CC2)ccc1-c1nc2cc(Cl)c(F)cc2[nH]1,866
15,N=C(NC1CC1)c1ccc2[nH]c(CCCCCc3nc4cc(C(=N)NC5CC5)ccc4[nH]3)nc2c1,934
16,COc1ccc(CN2CCCN(Cc3cccc(NC(=O)c4ccc(-c5ccccc5)cc4)c3)CC2)cc1,943
17,CN(CCCCNC(=O)/C=C/c1ccccc1)C1CC2(CCN(C(=O)OC(C)(C)C)CC2)c2ccccc21 (centres undefined),1140
18,CON=Cc1sc(CNCCCN=c2cc(O)c3ccccc3[nH]2)c(C)c1Br,962
19,Cc1c(-c2ccc3c(c2)C(NCCCN2CCCCC2)CC3)cnc(N)c1C (centres undefined),1110
20,O=C(N[C@@H](CC1CCCCC1)C(=O)NCc1cccc(C(F)(F)F)c1)c1ccc(O)c(-c2ccc(Cl)c(Cl)c2)c1,224
21,N#Cc1ccc(CNCCCCCCNCc2ccc(C#N)c3ccccc23)c2ccccc12,610
22,c1cc(-c2ccc(CNC3CC3)cc2)cc(-c2nc3ccccc3[nH]2)c1,1660
23,COc1cccc(CC(C)NCC(O)c2cccc(Cl)c2)c1 (centres undefined),1270
24,CN1CCC(NC(=O)c2cc(Oc3ccc4c(c3)CCN4C(=O)Nc3cccc(C(F)(F)F)c3)ccn2)CC1,930
25,COc1ccccc1CCNc1nc(C)cc(N[C@@H](Cc2ccccc2)C(=O)NCCCOC(C)C)n1,865

row,SMILES,XC50 [nM]
1,N=C(N)NN=CC(=O)Nc1cc([N+](=O)[O-])cc([N+](=O)[O-])c1,628
2,COc1ccc(C2C(C(=O)Nc3cc(Cl)c(OC)cc3OC)c3ccccc3C(=O)N2C)cc1 (centres undefined),820
3,Cc1ccccc1Cn1ccc2c3c(N)nc(N)nc3ccc21,3.2
4,O=C(Nc1ccc(F)cc1)c1cnc(N2CCN(c3ccncc3)CC2)c(Cl)c1,735
5,c1ccc(Oc2ccc(Nc3ccnc4cc(-c5ccc(CN6CCOCC6)o5)ccc34)cc2)nc1,906
6,COc1ccc(Cn2c(=O)[nH]c3cc(C(=O)NC4CCN(Cc5ccccc5)CC4)ccc3c2=O)cc1,751
7,O=C(Nc1cccc(CN2CCN(C(=O)c3ccccc3)CC2)c1)c1cccs1,308
8,Cc1sc(CNCCCNc2cc(=O)c3ccccc3[nH]2)c(C(F)(F)F)c1C,734
9,Cc1cccc(Cn2c(Cc3ccccc3)nnc2Sc2ccc([N+](=O)[O-])c(C#N)c2)c1,1140
10,CN(C)CCNCc1ccc(-c2ccc3c(Nc4ccc(Cl)cc4F)ccnc3c2)o1,208
11,N=C(N)Nc1nc(-c2cccc(NC(=O)Cc3ccccc3)c2)cs1,1000
12,CC(C)C[C@@H](/C=N/N1CC(=O)NC1=O)NC(=O)[C@H](CC(C)C)NC(=O)c1ccc(OCCN2CCOCC2)cc1,270
13,Cc1cc(NC(=O)NCCN2CCC(NC(=O)c3cccc(Br)c3)C2)c2ccccc2n1 (centres undefined),553
14,COc1ccc2nccc([C@@H](O)CN3CCC(NC(=O)c4[nH]c5ccccc5c4-c4ccccc4)CC3)c2c1,904
15,CN1CCN(CCCN(Cc2cccc(-c3cccc(CNCCc4ccccc4)c3)c2)C(=O)Nc2ccccc2)CC1,579
16,O=C(/C=C/c1ccc(C(F)(F)F)cc1)NCCCCCN1CCCN(C(=O)Nc2ccc(Cl)cc2)CC1,869
17,CCCCCC(C)N/C(=N/c1cccc(Cl)c1Cl)Nc1ccc(C#N)cc1O (centres undefined),805
18,Cc1cnc(N2CCN(CCCN3CCCC3)CC2)nc1Oc1ccc(-n2ccnc2)cc1,898
19,CCN(CC)c1ccc(C(c2ccc(N(CC)CC)cc2)c2ccc([N+](=O)[O-])cc2)cc1,946
20,CC1CCc2c(C(=O)N3CCc4ccccc4C3)csc2C1 (centres undefined),782
21,CCCCCCCN1C2CCC1CC(CCOc1ccnc3ccc(OC)cc13)C2 (centres undefined),389
22,CC1CC(NCCCNc2cc(=O)c3ccccc3[nH]2)c2c1cc(Cl)c(Cl)c2Cl (centres undefined),837
23,CC[C@H]1CN2CC[C@H]1C[C@H]2C(O)c1cc(OC)nc2ccccc12 (some centres undefined),141
24,Cc1cnc2ccc(NS(=O)(=O)c3sc4ccc(Cl)cc4c3C)cc2c1N1CCNCC1,807
25,O=C(Nc1ccc(C(=O)N2CCN(CCN3CCN(c4cccc(C(F)(F)F)c4)CC3)CC2)cc1)c1ccc(C(F)(F)F)cc1,690

row,SMILES,XC50 [nM]
1,Cc1oc(-c2ccccc2)nc1CCOc1ccc(C[C@H](Nc2ccccc2C(=O)c2ccccc2)C(=O)NCc2ccccn2)cc1,884
2,CC(C)n1ncc2c(C(=O)N3CCCc4ccccc43)cc(-c3ccccc3)nc21,601
3,Cc1nc(C)c(-c2ccc(Sc3ccc(Cl)cc3)cc2)c(O)c1Br,138
4,CC1(C)N=C(N)N=C(N)N1OCc1ccc2ccccc2c1,3.2
5,Nc1nc(Nc2cccc(Cl)c2)ncc1C(=O)NCc1ccncc1,832
6,CC1(C)NC(N)=NC(=N)N1OCc1cc(Cl)cc2c1OCOC2,3.2
7,Cc1ccc(C(C)C)c(Oc2ccc3nc(N)nc(N)c3c2)c1,10.2
8,COc1ccc(C=NNc2nc3ccccc3[nH]2)cc1O,915
9,CN1CCC(C(=O)Nc2ccc(-c3ccc(-c4nc5ccccc5[nH]4)s3)cc2)CC1,816
10,CCC(C)NCCC(c1ccccc1)c1ccccc1O (centres undefined),788
11,C=CCOc1cccc2c1CCN(CCN1CCC(NC(=O)c3ccc(-c4ccc(Cl)cc4)cc3)CC1)C2,673
12,Cc1cc(NC2CCCC2)nc(Nc2ccccc2)n1,985
13,Cc1cccc2nc(-c3ccc(-c4cccc(CN5CC(C)OC(C)C5)c4)s3)[nH]c12 (centres undefined),757
14,COc1ccc2nccc(N3CCC(NCCNCc4ccc5c(n4)NC(=O)CS5)C3)c2n1 (centres undefined),694
15,Clc1ccc(Nc2nc(NCc3ccccc3)nc(N/N=C/c3ccccn3)n2)cc1,776
16,CC(C)CNCc1cccc(-c2ccc(CN(C(=O)NCCc3ccccc3)C3CCN(Cc4ccccc4)CC3)cc2)c1,764
17,CCN(CCCN1CCCCC1)c1cc(C)nc(Nc2ccc(C)cc2C(F)(F)F)n1,544
18,N#Cc1cccc(NC(=O)Nc2ccc(-c3cccc(-c4nc5cc(F)ccc5[nH]4)c3)cc2)c1,275
19,CC[C@H]1CN(C/C=C/c2ccc(OC)cc2)CC[C@H]1CCCc1ccnc2ccc(O)cc12,657
20,Cc1ccc(F)cc1S(=O)(=O)N1CCCCC(c2ccc(C(F)(F)F)cc2)=N1,937
21,Cc1cc(C)c2oc(-c3cccc(NC(=O)c4ccc([N+](=O)[O-])o4)c3C)nc2c1,1150
22,Cc1cc(NC(=O)Nc2ccc3nccc(N4CCN(C)CC4)c3c2)ccc1Br,92.7
23,Cc1cc(O)cc2c(C3CCN(CC4CCC(NC(=O)/C=C/c5ccccc5Cl)CC4)CC3)c[nH]c12 (centres undefined),900
24,CCC(C)CN1CCN(c2ccc(NC(=O)c3cccs3)cc2)CC1C (centres undefined),655

# From ChEMBL document CHEMBL1157539, “Thousands of chemical starting points for antimalarial lead identification” (Nature, 2010)
